Experiments:
Format in all cases: in vivo
[1] = tested on: Abutilon theophrasti (ABUTH); assay: Post-emergence herbicidal action, greenhouse pot test; settings: Abutilon theophrasti, 504 h, rated visually after about 3 weeks vs untreated controls, 100% = plants have died
Procedure, shortened: (§1)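 Activity was scored by eye about 3 weeks after treatment against untreated plants, where 100% means dead plants and 0% means no difference. Plants at the one-leaf stage received a foliar spray of WP or EC formulations in water plus 0.5% additive (600 l/ha, up to 20 g/ha). Plants were grown in sandy loam pots in a greenhouse for 2–3 weeks before spraying.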

[2] = tested on: Amaranthus retroflexus (AMARE); assay: as above; settings: Amaranthus retroflexus, 504 h, rated visually after about 3 weeks vs untreated controls, 100% = plants have died
Procedure, shortened: as §1

Avena fatua (AVEFA) = assay: as above; settings: Avena fatua, 504 h, 20 g/ha, rated visually after about 3 weeks vs untreated controls, 100% = plants have died, read-out: Post-emergence action at 20 g/ha against AVEFA in %
Procedure, shortened: as §1

Lolium rigidum (LOLRI) = assay: as above; settings: Lolium rigidum, 504 h, dosage 20 g/ha, read-out: Post-emergence action against LOLRI in %
Procedure, shortened: as §1

[3] = tested on: Pharbitis purpurea (PHBPU); assay: as above; settings: Ipomoea purpurea, 504 h, read-out: Post-emergence action against PHBPU in %
Procedure, shortened: as §1

[4] = tested on: Polygonum convolvulus (POLCO); assay: as above; settings: Fallopia convolvulus, 504 h, read-out: Post-emergence action against POLCO in %
Procedure, shortened: as §1

Veronica persica (VERPE) = assay: as above; settings: Veronica persica, 504 h, read-out: Post-emergence action against VERPE
Procedure, shortened: as §1

Viola tricolor (VIOTR) = assay: as above; settings: Viola tricolor, 504 h, read-out: Post-emergence action against VIOTR
Procedure, shortened: as §1

[5] = tested on: Alopecurus myosuroides (ALOMY); assay: Post-emergence herbicidal action, greenhouse pot test (also comparative test C); settings: Alopecurus myosuroides, 504 h, rated visually after about 3 weeks vs untreated controls, 100% = plants have died
Procedure, shortened: (§2)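 Green parts of one-leaf-stage plants are sprayed at 600 l/ha with formulated compound plus 0.5% additive, then kept under optimum greenhouse conditions for about 3 weeks. Damage is scored visually, where 100% means dead plants and 0% means no difference from controls.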

[6] = tested on: Echinochloa crus-galli (ECHCG); assay: as above
Procedure, shortened: as §2

[7] = tested on: Matricaria inodora (MATIN); assay: as above; settings: Tripleurospermum inodorum, 504 h, read-out: Post-emergence action against MATIN in %
Procedure, shortened: as §2

Setaria viridis (SETVI) = assay: as above; settings: Setaria viridis, 504 h
Procedure, shortened: as §2

Glycine max (GLXMA) = assay: Post-emergence crop plant compatibility, greenhouse pot test; settings: 1.25 g/ha
Procedure, shortened: (§3)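 Greenhouse pot test; post-emergence foliar spray at one-leaf stage, WP or EC in water + 0.5% additive, 600 l/ha. Visual rating after ~3 wk, % relative to untreated (0–100%).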

[8] = tested on: Triticum aestivum (TRZAS); assay: as above; settings: vs untreated controls
Procedure, shortened: as §3

Zea mays (ZEAMX) = assay: as above; settings: 1.25 g/ha, vs untreated controls
Procedure, shortened: as §3

Oryza sativa (ORYSA) = assay: Post-emergence crop plant compatibility, greenhouse pot test (also comparative test C); settings: for Post-emergence action against ORYSA (crop plant compatibility): vs untreated controls
Procedure, shortened: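 Visual damage versus untreated plants (0% = like control, 100% = plants died) was scored about 3 weeks after a post-emergence spray in greenhouse pots. Treatment: one-leaf stage, WP or EC in water at 600 l/ha with 0.5% additive; a/b/c mark different dosages on the same crop.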

- Post-emergence action against GLXMA in % (Glycine max (GLXMA)): 20%
- Post-emergence action against TRZAS (crop plant compatibility) ([8]; 1.25 g/ha): 10%
- Post-emergence action against TRZAS (crop plant compatibility) ([8]; 5 g/ha): 20%
- Post-emergence action against ZEAMX (crop plant compatibility) (Zea mays (ZEAMX)): 20%
- Post-emergence action against ORYSA (crop plant compatibility) (Oryza sativa (ORYSA); 1.25 g/ha): 0%
- Post-emergence action against ORYSA (crop plant compatibility) (Oryza sativa (ORYSA); 5 g/ha): 10%
- Post-emergence action against ORYSA in % (Oryza sativa (ORYSA); 20 g/ha, crop plant compatibility): 20%
Structure (SMILES): COCCOC(=O)COc1ccccc1Oc1cc(-n2c(=O)cc(C(F)(F)F)n(C)c2=O)c(F)cc1[N+](=O)[O-] [I.6-1, 2-Methoxyethyl (2-{4-fluoro-5-[3-methyl-2,6-dioxo-4-(trifluoromethyl)-3,6-dihydropyrimidin-1(2H)-yl]-2-nitrophenoxy}phenoxy)acetate]
- pest or weed control at 1.25 g/ha ([1]; 1.25 g/ha, read-out: Post-emergence action at 1.25 g/ha against ABUTH in %): 100%
- pest or weed control at 5 g/ha ([1]; 5 g/ha, read-out: Post-emergence action at 5 g/ha against ABUTH in %): 100%
- pest or weed control at 20 g/ha ([1]; 20 g/ha, read-out: Post-emergence action at 20 g/ha against ABUTH in %): 100%
- pest or weed control at 1.25 g/ha ([2]; 1.25 g/ha, read-out: Post-emergence action at 1.25 g/ha against AMARE in %): 100%
- pest or weed control at 5 g/ha ([2]; 5 g/ha, read-out: Post-emergence action at 5 g/ha against AMARE in %): 100%
- pest or weed control at 20 g/ha ([2]; 20 g/ha, read-out: Post-emergence action at 20 g/ha against AMARE in %): 100%
- pest or weed control at 20 g/ha (Avena fatua (AVEFA)): 100%
- pest or weed control at 20 g/ha (Lolium rigidum (LOLRI)): 80%
- pest or weed control at 5 g/ha ([3]; dosage 5 g/ha): 100%
- pest or weed control at 20 g/ha ([3]; dosage 20 g/ha): 100%
- pest or weed control at 5 g/ha ([4]; dosage 5 g/ha): 100%
- pest or weed control at 20 g/ha ([4]; dosage 20 g/ha): 100%
- pest or weed control at 5 g/ha (Veronica persica (VERPE); 5 g/ha): 100%
- pest or weed control at 20 g/ha (Veronica persica (VERPE); 20 g/ha): 100%
- pest or weed control at 1.25 g/ha (Viola tricolor (VIOTR); 1.25 g/ha): 100%
- pest or weed control at 5 g/ha (Viola tricolor (VIOTR); 5 g/ha): 100%
- pest or weed control at 20 g/ha (Viola tricolor (VIOTR); 20 g/ha): 100%
- pest or weed control at 5 g/ha ([5]; 5 g/ha, read-out: Post-emergence action at 5 g/ha against ALOMY in %): 80%
- pest or weed control at 20 g/ha ([5]; 20 g/ha, read-out: Post-emergence action at 20 g/ha against ALOMY in %): 100%
- Post-emergence action at 1.25 g/ha against ECHCG in % ([6]; 1.25 g/ha, rated visually after about 3 weeks vs untreated controls, 100% = plants have died): 90%
- pest or weed control at 5 g/ha ([6]; Echinochloa crus-galli, 504 h, dosage 5 g/ha, read-out: Post-emergence action against ECHCG in %): 90%
- pest or weed control at 20 g/ha ([6]; Echinochloa crus-galli, 504 h, dosage 20 g/ha, read-out: Post-emergence action against ECHCG in %): 100%
- pest or weed control at 5 g/ha ([7]; dosage 5 g/ha): 100%
- pest or weed control at 20 g/ha ([7]; dosage 20 g/ha): 100%
- pest or weed control at 20 g/ha (Setaria viridis (SETVI); 20 g/ha, read-out: Post-emergence action against SETVI): 100%
- pest or weed control at 1.25 g/ha (Setaria viridis (SETVI); dosage 1.25 g/ha, read-out: Post-emergence action against SETVI in %): 100%
- pest or weed control at 5 g/ha (Setaria viridis (SETVI); dosage 5 g/ha, read-out: Post-emergence action against SETVI in %): 100%

— patent publication US20240025862A1, “SUBSTITUTED N-PHENYLURACILS AND SALTS THEREOF, AND USE THEREOF AS HERBICIDAL ACTIVE SUBSTANCES” (Bayer Aktiengesellschaft, priority 2020, published 2024)
